Reference: ChEMBL document CHEMBL5370544, “Design, synthesis, and biological evaluation of 1-styrenyl isoquinoline derivatives for anti-hepatocellular carcinoma activity and effect on mitochondria” (Eur J Med Chem, 2023)
Activity calls are given as the source filed them.

Assays:
Assay type in all cases: functional, cell-based
Huh-7 [1] = assay: Induction of mitochondrial membrane potential depolarization in human Huh-7 cells incubated for 24 hrs by TMRE staining based flow cytometry analysis; details: dose 0.9-8.1 µM
Huh-7 [2] = assay: Induction of ROS production in human Huh-7 cells assessed as increase in intracellular ROS level at 0.9 to 8.1 uM incubated for 24 hrs by DCFH-DA staining based fluorescence assay; details: dose 0.9-8.1 µM
SK-HEP1 [3] = assay: Induction of apoptosis in human SK-HEP1 cells assessed as inhibition of caspase-9 expression incubated for 48 hrs by Western blotting analysis; details: dose 1.5-13.5 µM
SK-HEP1 [4] = assay: Inhibition of cell migration in human SK-HEP1 cells incubated for 24 hrs by scratch wound healing assay; details: dose 1.25-5 µM
Huh-7 [5] = assay: Induction of apoptosis in human Huh-7 cells assessed as chromatin condensation at 0.9 to 8.1 uM incubated for 24 hrs by giemsa staining based micrscopic analysis; details: dose 0.9-8.1 µM

CC(=O)Oc1ccccc1/C=C/c1nccc2ccccc12
active: Activity (Huh-7 [1]) Dose-Dependent Effect | Activity (Huh-7 [2]) | Activity (SK-HEP1 [3]) Dose-Dependent Effect | inhibition (SK-HEP1 [4]) Dose-Dependent Effect | Activity (Huh-7 [5])
